The test system of test [1] is Aurora-A in U251 and RPE1 cells. Put plainly: Western blot, total Aurora-A protein level. The class given is cell-based, Homo sapiens. As to conditions: mitotic U251 and RPE1 lysates, siRNA 48 h. The procedure: Cells were lysed on ice for 30 min in lysis buffer (50 mM tris pH 8.0, 300 mM NaCl, 0.2%(v/v) NP-40, 10%(v/v) glycerol, protease inhibitor cocktail C, phosphatase inhibitor cocktail 3 (Sigma, 1:200 dilution), 100 nM okadaic acid (Enzo, ALX-350-003-C100)). Lysates were then centrifuged at 14,000 × g, 15 min, 4 °C, the supernatants were transferred to a fresh tube, and the pellet was discarded. Protein concentrations were measured by Bradford assay using Protein Assay Dye Reagent Concentrate (Bio-Rad Laboratories, 5000006). NuPage LDS sample buffer, supplemented with NuPAGE sample reducing agent (Invitrogen) were added prior to boiling for 10 min at 90 °C. Equal amounts of protein, between 8–20 µg/lane, were loaded into pre-cast 4–12% Bis-Tris gels (Invitrogen, NP0322BOX) and proteins separated in 1x MOPS buffer (Invitrogen) and transferred to nitrocellulose membrane (0.45 µM). Nitrocellulose was then blocked in 5% milk (wt/v) in TBS, 0.1% Tween (v/v) (TBST) for 1 h. Primary and secondary antibodies were diluted in 5% milk, TBST and incubated overnight at 4 °C or for 1 h at room temperature, respectively. Species-specific secondary antibodies conjugated to horseradish peroxidase (HRP) were used (anti-Mouse, Cytiva NA931V; anti-Rabbit, Cytiva NA934; anti-Sheep, Jackson 713-035-003). Membranes were washed for 1 h in TBST, changing the buffer five times, after each antibody incubation. […]
(In general: Immunoblotting shows a protein as a band on a membrane.)

Test [2] deals with Aurora-A:TACC3 complexes in RPE1 p53-/- cells. Put plainly: Proximity ligation assay Aurora-A:TACC3, RPE1 p53-/-. As to conditions: siRNA 48 h. The class given is cell-based, Homo sapiens. The procedure: siRNA depletion was carried out by reverse transfection using oligofectamine (Thermo Scientific, 12252011) and lipofectamine RNAiMax (Thermo Scientific, 13778075), according to the manufacturer’s instructions, for U251 and RPE1 cells, respectively. For immunofluorescence, 1 × 10^5 cells were seeded in six-well plates and simultaneously transfected with 60 pmol siRNA duplex and 3 µl transfection reagent diluted in 200 µl Opti-MEM serum-free medium. Growth medium was added to a final volume of 2 ml. For western blotting, 1 × 10^6 cells were seeded in 10 cm dishes and transfected with 300 pmol siRNA duplex and 15 µl transfection reagent diluted in 1000 µl Opti-MEM. Growth medium was added to a final volume of 10 ml. Cells were incubated with siRNA for 48 h prior to fixation or harvesting. As a negative control (siControl) Silencer select negative control No.1 siRNA was transfected as above. For TACC3 depletion, where two siRNA duplexes were used, 40 pmol of each was transfected per well.
Cells were seeded and fixed as above, then a proximity ligation assay (PLA) was carried out according to the manufacturer’s instructions with the supplied buffers (Navinci, NaveniFlex Cell MR Red, NC.MR.100 Red). All incubations are for 1 h at 37 °C, unless otherwise stated. […]

For 5′-CGGUAGUGAUAAAAGCUCAtt-3′ [siTPX2], the “total Aurora-A protein levels” value in test [1] is listed as “decreased total Aurora-A protein levels”. Besides, the “PLA foci formation between TACC3 and Aurora-A antibodies” value in test [2] is “fully prevented both spindle recruitment of TACC3 and PLA foci formation”.
